From US20250145600A1, “2-((4-((S)-2-(4-CHLORO-2-FLUOROPHENYL)-2-METHYLBENZO[D][1,3]DIOXOL-4-YL)PIPERIDIN-1-YL)METHYL)-1-(((S)-OXETAN-2-YL)METHYL)-1H-IMIDAZOLE DERIVATIVES AS ACTIVATORS OF THE GLP1 RECEPTOR FOR THE TREATMENT OF OBESITY” (Novartis AG, priority 2022, published 2025) come the findings set out here.

What is called EC50 is the concentration that produces a half-maximal response. For orientation: Emax means the size of the effect at its maximum, as opposed to the concentration needed.

This experiment has as its target human GLP1R (Homo sapiens, UniProt P43220). Kind of experiment: Human GLP1R DERET internalization assay. It is filed as cell-based. The following applies: HEK293-SNAP-hGLP1R-GloSensor cells; for EC50: top concentration 30 μM; for Emax: relative to GLP1(7-36). Here is the method: Compounds of formula (I) according to the invention were tested in the following cellular assays that measure the intracellular cAMP concentration, beta-arrestin recruitment and receptor internalization. The cAMP is generated by the activation of GLP1R. The extent to which the GLP1R is internalized into the cell and away from the plasma membrane following activation is also shown in Table 2. EC50 for each assay is defined as the concentration of the compound that leads to half of the maximum response (after baseline correction). Emax is defined as the maximum response observed for the test compound, normalized to the maximum response observed for the endogenous ligand (GLP1(7-36)) to GLP1R.
Human GLP1R DERET Internalization Assay
The extent to which agonists internalize the human GLP1R was determined based on an optimized version of a RealTime FRET-based ‘DERET’ (Dissociation Enhanced Resonance Energy Transfer) assay. The technology relies on labeling of the SNAP-tagged GPCR with a SNAP-Lumi-Terbium (donor fluorophore, Cisbio, cat #SSNPTBD). The compounds are incubated with the cells over-expressing the GPCR of interest in the presence of an excess of fluorescein (acceptor fluorophore). When the GPCR is on the cell surface, the donor signal is quenched by the acceptor and the donor/acceptor ratio is low. As the GPCR internalizes, the donor signal is no longer quenched, and the acceptor is no longer excited so the donor/acceptor ratio increases.
HEK293-SNAP-hGLP1R-GloSensor cells (stably overexpressing SNAP-tagged hGLP1R) were seeded overnight in white 384-well poly-D-Lysine coated plates (Greiner Bio One, cat #781945) in regular DMEM growth medium (Gibco, cat #11965-092, 10% heat-inactivated FBS, 10 mM HEPES, 1× penicillin/streptomycin, 0.5 mg/mL geneticin (Gibco, cat #10131-035) and 0.25 mg/mL hygromycin B (Invitrogen, cat #10687010). On the assay day, cell medium was removed and 100 nM SNAP-Lumi-Tb reagent was added in Opti-MEM solution. The cells were incubated at 37° C. for 1 h. Cells were washed using a plate washer in assay buffer [1×HBSS (10× Gibco, cat #14065-056), 20 mM Hepes (Gibco, cat #15630-080), 1 mM CaCl2 (Fluka, cat #21114-1L), 1 mM MgCl2 (Ambion, cat #AM9530G) pH7.4], and 20 μL buffer with 0.1% BSA was added to each well. After leaving cells to equilibrate for […] at 37° C., 10 μL of Fluorescein (sodium salt, Sigma, cat #F6377, diluted in buffer) was added at 25 μM final concentration. To generate triplicate dose response curves, compounds were serially diluted 3-fold in assay buffer, then added to the cell assay plate to a final volume of 40 μL and final top concentrations starting at 30 μM. In the same plate and assay buffer as the tested compounds, a GLP1 (7-36) peptide (Bachem, cat #H-6795) control curve was included at a final top concentration of 1 μM in order to establish EC100. EC0 wells with buffer only were also included. The plate FRET fluorescence was measured immediately using a Perkin Elmer Envision with LANCE/DELFIA D400 single mirror, excitation filter X320, and emission filters M615_203 (donor emission) and M515 (acceptor emission), and then measured every 30 min. […] Plates were kept at 37° C. between reads. Data was expressed as the ratio of donor/acceptor emissions using Microsoft Excel and plotted in GraphPad Prism. In order to determine EC50 and Emax for internalization, data was calculated and expressed as percent of the GLP1 (7-36) EC100 control wells: [(sample signal−mean EC0 signal)/(mean EC100 of GLP1 (7-36) signal−mean EC0 signal)]*100 using Microsoft Excel. Curve fitting for EC50 determinations was performed using GraphPad Prism. The 4-parameter logistic model, Hill slope was used:
where Y is the functional response; X is the compound concentration; bottom is A0 or the minimum value (at 0 dose); top is Ainf or the maximum value (at infinite dose); EC50 is the point of inflection (i.e. the point on the sigmoid shaped curve halfway between A0 and Ainf). […]

Sequence of human GLP1R (P43220 24-463): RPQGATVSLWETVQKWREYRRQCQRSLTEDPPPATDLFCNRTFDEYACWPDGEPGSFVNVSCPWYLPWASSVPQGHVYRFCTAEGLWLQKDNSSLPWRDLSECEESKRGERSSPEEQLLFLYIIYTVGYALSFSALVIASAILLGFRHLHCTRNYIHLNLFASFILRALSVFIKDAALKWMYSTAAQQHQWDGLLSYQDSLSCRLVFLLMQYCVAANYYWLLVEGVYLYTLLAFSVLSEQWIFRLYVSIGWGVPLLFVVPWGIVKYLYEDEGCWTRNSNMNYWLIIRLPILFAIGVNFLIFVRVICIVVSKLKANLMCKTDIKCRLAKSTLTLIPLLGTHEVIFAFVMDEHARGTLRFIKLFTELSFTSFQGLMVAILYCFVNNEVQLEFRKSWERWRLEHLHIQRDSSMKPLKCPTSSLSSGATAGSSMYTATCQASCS

`Cc1nc(CN2CCC(c3cccc4c3O[C@@](C)(c3ccc(Cl)cc3F)O4)CC2)n(C[C@@H]2CCO2)c1-c1cc(C(=O)O)n(C)n1` [Compound C-21, 3-(2-((4-((S)-2-(4-chloro-2-fluorophenyl)-2-methylbenzo[d][1,3]dioxol-4-yl)piperidin-1-yl)methyl)-4-methyl-1-(((S)-oxetan-2-yl)methyl)-1H-imidazol-5-yl)-1-methyl-1H-pyrazole-5-carboxylic acid] showed an EC50 of more than 30000 nM and a maximal effect (Emax) of 2%.
With `Cc1c(-c2ccc(C(=O)O)o2)nc(CN2CCC(c3cccc4c3O[C@@](C)(c3ccc(Cl)cc3F)O4)CC2)n1C[C@@H]1CCO1` [Compound C-24, 5-(2-((4-((S)-2-(4-chloro-2-fluorophenyl)-2-methylbenzo[d][1,3]dioxol-4-yl)piperidin-1-yl)methyl)-5-methyl-1-(((S)-oxetan-2-yl)methyl)-1H-imidazol-4-yl)furan-2-carboxylic acid], a half-maximal response (EC50) required 490 nM and the Emax worked out at 19%.
